How the values were obtained:
sGC α1/β1 heterodimer = sGC α1/β1 heterodimer (Homo sapiens (Human), UniProt Q02108+Q02153); assay: Cell-based sGC functional assay (CASA assay), cGMP by HTRF; conditions: CHO-K1/sGC cells; for EC50: inflection point of cGMP production, 4P fit, read-out: IP; for Emax: CHO-K1, cGMP production as percentage of maximum of compound A (set to 100%), read-out: % Activation
Summary of the method: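 cGMP made in CHO-K1/sGC (human α1/β1) cells is read by HTRF after compound treatment for 1 hr at 37° C, following 30 min at 25° C with or without 1 μM DETA-NO; IBMX 0.5 mM present. Values are % of standard compound maximum; 4P fit.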

[1] = target: human recombinant sGC enzyme (Homo sapiens (Human), UniProt Q02108+Q02153); assay: SEC competition binding assay with [3H] Compound B radioligand; conditions: displacement of 1.6 nM [3H] Compound B, 24 h at 37° C.
Summary of the method: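 Competition format: [3H] Compound B (1.6 nM) displaced from human recombinant sGC over 24 h at 37° C. in triethanolamine pH 7.4 buffer with MgCl2, BSA, DTT, 300 μM DETA/NO and 400 μM GTP (1% DMSO). Gel-filtration eluates counted by liquid scintillation; 1 μM Compound B defined non-specific binding; Ki by one-site fit.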

| SMILES | % Activation (sGC α1/β1 heterodimer; cGMP production as percentage of maximum of compound A (set to 100%)) | EC50 (sGC α1/β1 heterodimer) | Ki [1] | Emax (sGC α1/β1 heterodimer) |
| --- | --- | --- | --- | --- |
| CC1(c2cc(O)c(F)c(F)c2)C(=O)Nc2nc(-c3cn4ccnc4c(Cc4ccccc4F)n3)nc(N)c21 (stereo not drawn) [Example 9-B, 4-Amino-5-(3,4-difluoro-5-hydroxyphenyl)-2-{8-[(2-fluorophenyl)methyl]imidazo[1,2-a]pyrazin-6-yl}-5-methyl-5,7-dihydro-6H-pyrrolo[2,3-d]pyrimidin-6-one] |  | 1040 nM | 0.126 nM | 85% |
| CC1(c2ccc(F)c(Cl)c2O)C(=O)Nc2nc(-c3cn4ccnc4c(Cc4cc(F)cc(F)c4)n3)nc(N)c21 (stereo not drawn) [Example 96-B, 4-Amino-5-(3-chloro-4-fluoro-2-hydroxyphenyl)-2-{8-[(3,5-difluorophenyl)methyl]imidazo[1,2-a]pyrazin-6-yl}-5-methyl-5,7-dihydro-6H-pyrrolo[2,3-d]pyrimidin-6-one] |  | 138 nM | 0.862 nM | 169% |
| CC1(c2cc(O)c(Cl)c(F)c2)C(=O)Nc2nc(-c3cn4ccnc4c(Cc4cc(F)ccc4F)n3)nc(N)c21 (stereo not drawn) [Example 6-B, 4-Amino-5-(4-chloro-3-fluoro-5-hydroxyphenyl)-2-{8-[(2,5-difluorophenyl)methyl]imidazo[1,2-a]pyrazin-6-yl}-5-methyl-5,7-dihydro-6H-pyrrolo[2,3-d]pyrimidin-6-one] |  | 94 nM | 0.094 nM | 113% |
| CC1(c2cc(O)c(C#N)c(F)c2)C(=O)Nc2nc(-c3cn4ncnc4c(CC4CCCCC4)n3)nc(N)c21 (stereo not drawn) [Example 15-B, 4-(4-Amino-2-(8-(cyclohexylmethyl)-[1,2,4]triazolo[1,5-a]pyrazin-6-yl)-5-methyl-6-oxo-6,7-dihydro-5H-pyrrolo[2,3-d]pyrimidin-5-yl)-2-fluoro-6-hydroxybenzonitrile] |  | 771 nM | 0.158 nM | 107% |
| CC1(c2ccc(Cl)c(O)c2)C(=O)Nc2nc(-c3cn4ccnc4c(Cc4ccc(Cl)cc4)n3)nc(N)c21 (stereo not drawn) [Example 44-A, 4-Amino-5-(4-chloro-3-hydroxyphenyl)-2-{8-[(4-chlorophenyl)methyl]imidazo[1,2-a]pyrazin-6-yl}-5-methyl-5,7-dihydro-6H-pyrrolo[2,3-d]pyrimidin-6-one] |  | 460 nM | 0.507 nM | 100% |
| CCCCc1nc(-c2nc(N)c3c(n2)NC(=O)C3(C)c2ccc(C(F)(F)F)c(O)c2)cn2ncnc12 (stereo not drawn) [Example 61-B, 4-Amino-2-(8-butyl-[1,2,4]triazolo[1,5-a]pyrazin-6-yl)-5-(3-hydroxy-4-(trifluoromethyl)phenyl)-5-methyl-5,7-dihydro-6H-pyrrolo[2,3-d]pyrimidin-6-one] |  | 121 nM | 2.08 nM | 105% |
| CCCCc1nc(-c2nc(N)c3c(n2)NC(=O)C3(C)c2ccc(O)c(Cl)c2)cn2ccnc12 (stereo not drawn) [Example 75-B, 4-Amino-2-(8-butylimidazo[1,2-a]pyrazin-6-yl)-5-(3-chloro-4-hydroxyphenyl)-5-methyl-5,7-dihydro-6H-pyrrolo[2,3-d]pyrimidin-6-one] |  | 770 nM | 6.55 nM | 153% |
| CC1(c2ccc(O)cc2)C(=O)Nc2nc(-c3cn4ccnc4c(CCC4CCCCC4)n3)nc(N)c21 (stereo not drawn) [Example 85-B, 4-Amino-2-(8-(2-cyclohexylethyl)imidazo[1,2-a]pyrazin-6-yl)-5-(4-hydroxyphenyl)-5-methyl-5,7-dihydro-6H-pyrrolo[2,3-d]pyrimidin-6-one] |  | 605 nM | 4.82 nM | 130% |
| CC1(c2cccc(O)c2)C(=O)Nc2nc(-c3cn4ccnc4c(Cc4ccc(Cl)cc4)n3)nc(N)c21 (stereo not drawn) [Example 56-B, 4-Amino-2-{8-[(4-chlorophenyl)methyl]imidazo[1,2-a]pyrazin-6-yl}-5-(3-hydroxyphenyl)-5-methyl-5,7-dihydro-6H-pyrrolo[2,3-d]pyrimidin-6-one] |  | 627 nM | 1.24 nM | 101% |
| CCCCc1nc(-c2nc(N)c3c(n2)NC(=O)C3(C)c2ccc(Cl)c(O)c2)cn2ccnc12 (stereo not drawn) [Example 52-A, 4-Amino-2-(8-butylimidazo[1,2-a]pyrazin-6-yl)-5-(4-chloro-3-hydroxyphenyl)-5-methyl-5,7-dihydro-6H-pyrrolo[2,3-d]pyrimidin-6-one] |  | 144 nM | 0.864 nM | 85% |
| CC1(c2cc(O)c(Cl)cn2)C(=O)Nc2nc(-c3cn4ccnc4c(Cc4ccc(F)cc4)n3)nc(N)c21 (stereo not drawn) [Example 92-B, 4-Amino-5-(5-chloro-4-hydroxypyridin-2-yl)-2-{8-[(4-fluorophenyl)methyl]imidazo[1,2-a]pyrazin-6-yl}-5-methyl-5,7-dihydro-6H-pyrrolo[2,3-d]pyrimidin-6-one] |  | 2860 nM | 0.729 nM | 104% |
| CCCCc1nc(-c2nc(N)c3c(n2)NC(=O)C3(C)c2cc(O)c(Cl)c(F)c2)cn2ccnc12 (stereo not drawn) [Example 39-B, 4-Amino-2-(8-butylimidazo[1,2-a]pyrazin-6-yl)-5-(4-chloro-3-fluoro-5-hydroxyphenyl)-5-methyl-5,7-dihydro-6H-pyrrolo[2,3-d]pyrimidin-6-one] |  | 873 nM | 0.446 nM | 101% |
| CC1(c2ccc(C(F)(F)F)c(O)c2)C(=O)Nc2nc(-c3cn4ccnc4c(Cc4cc(F)cc(F)c4F)n3)nc(N)c21 (stereo not drawn) [Example 33-B, 4-Amino-5-(3-hydroxy-4-(trifluoromethyl)phenyl)-5-methyl-2-{8-[(2,3,5-trifluorophenyl)methyl]imidazo[1,2-a]pyrazin-6-yl}-5,7-dihydro-6H-pyrrolo[2,3-d]pyrimidin-6-one] |  | 260 nM | 0.312 nM | 111% |

The next lines start with the values.

| % Activation (sGC α1/β1 heterodimer; cGMP production as percentage of maximum of compound A (set to 100%)) | EC50 (sGC α1/β1 heterodimer) | Ki [1] | Emax (sGC α1/β1 heterodimer) | SMILES |
| --- | --- | --- | --- | --- |
| 95% | 736 nM | 1.46 nM |  | CC1(c2ccc(Cl)c(O)c2)C(=O)Nc2nc(-c3cn4ccnc4c(Cc4ccc(F)cc4)n3)nc(NCC(O)C(F)(F)F)c21 (single isomer, unassigned) [Example 132-AB, 5-(4-Chloro-3-hydroxy-phenyl)-2-{8-[(4-fluoro-phenyl)methyl]imidazo-[1,2-a]pyrazin-6-yl}-5-methyl-4-[(3,3,3-trifluoro-2-hydroxypropyl)amino]-5,7-dihydro-6H-pyrrolo-[2,3-d]pyrimidin-6-one] |
|  | 137 nM | 4.95 nM | 112% | CC1(c2ccc(F)c(O)c2)C(=O)Nc2nc(-c3cn4ncnc4c(CCC(F)(F)C(F)(F)F)n3)nc(N)c21 (racemic) [Example 114-B, 4-Amino-5-(4-fluoro-3-hydroxyphenyl)-5-methyl-2-(8-(3,3,4,4,4-pentafluorobutyl)-[1,2,4]-triazolo[1,5-a]pyrazin-6-yl)-5,7-dihydro-6H-pyrrolo(2,3-d]pyrimidin-6-one] |
|  | 427 nM | 0.884 nM | 89% | CC1(c2ccc(Cl)c(O)c2)C(=O)Nc2nc(-c3cn4ccnc4c(Cc4cccc(F)c4)n3)nc(NCC(O)C(F)(F)F)c21 (stereo not drawn) [Example 131-AA, 5-(4-Chloro-3-hydroxy-phenyl)-2-{8-[(3-fluoro-phenyl)methyl]imidazo-[1,2-a]pyrazin-6-yl}-5-methyl-4-[(3,3,3-trifluoro-2-hydroxypropyl)amino]-5,7-dihydro-6H-pyrrolo-[2,3-d]pyrimidin-6-one] |
|  | 2680 nM | 0.333 nM | 91% | CC1(c2cc(O)c(C#N)c(Cl)c2)C(=O)Nc2nc(-c3cn4ccnc4c(Cc4cccc(F)c4)n3)nc(N)c21 (stereo not drawn) [Example 144-A, 4-(4-amino-2-{8-(3-fluorobenzyl)imidazo-[1,2-a]pyrazin-6-yl}-5-methyl-6-oxo-6,7-dihydro-5H-pyrrolo-[2,3-d]pyrimidin-5-yl)-2-chloro-6-hydroxy-benzonitrile] |
|  | 224 nM | 2.63 nM | 113% | CC1(c2cccc(O)c2)C(=O)Nc2nc(-c3cn4ccnc4c(Cc4cccc(Cl)c4)n3)nc(N)c21 (stereo not drawn) [Example 124-B, 4-Amino-2-{8-[(3-chlorophenyl)methyl]-imidazo[1,2-a]pyrazin-6-yl}-5-(3-hydroxyphenyl)-5-methyl-5,7-dihydro-6H-pyrrolo[2,3-d]pyrimidin-6-one] |
|  | 1820 nM | 15.6 nM | 106% | Cc1cccc(Cc2nc(-c3nc(N)c4c(n3)NC(=O)C4(C)c3cccc(O)c3)cn3ccnc23)c1 (stereo not drawn) [Example 122-B, 4-Amino-5-(3-hydroxy-phenyl)-5-methyl-2-{8-[(3-methylphenyl)methyl]-imidazo[1,2-a]pyrazin-6-yl}-5,7-dihydro-6H-pyrrolo-[2,3-d]pyrimidin-6-one] |
|  | 369 nM | 0.382 nM | 120% | CC1(c2cccc(O)c2)C(=O)Nc2nc(-c3cn4ccnc4c(Cc4cccc(F)c4)n3)nc(N)c21 (stereo not drawn) [Example 121-B, 4-Amino-2-{8-[(3-fluorophenyl)methyl]imidazo[1,2-a]pyrazin-6-yl}-5-(3-hydroxyphenyl)-5-methyl-5,7-dihydro-6H-pyrrolo[2,3-d]pyrimidin-6-one] |
|  | 966 nM | 4.01 nM | 103% | CC1(c2cccc(O)c2)C(=O)Nc2nc(-c3cn4ccnc4c(Cc4ccc(F)cc4)n3)nc(N3CCC(F)(F)CC3)c21 (stereo not drawn) [Example 135-B, 4-(4,4-Difluoropiperidin-1-yl)-2-{8-[(4-fluoro-phenyl)methyl]imidazo-[1,2-a]-pyrazin-6-yl}-5-(3-hydroxyphenyl)-5-methyl-5,7-dihydro-6H-pyrrolo[2,3-d]pyrimidin-6-one] |

Source: patent US10780092B2, “Fused pyrazine derivatives useful as soluble guanylate cyclase stimulators” (Merck Sharp & Dohme Corp., priority 2016, dated 2020)
